pIC50: −log10 of the molar value.
Tests used:
[1] = target: T1, TYK2-JH2 domain (Homo sapiens, UniProt P29597); assay: Binding activity test for JH2 domain of TYK2 (Tb-antibody/tracer FRET); conditions: for pIC50: JH2 domain enzyme, 60 min at 25°C, then 4°C overnight, read-out: TYK2 JH2 Binding IC50; for JAK1/TYK2 selectivity: ratio of JAK1 JH2 to TYK2 JH2 binding IC50
T1 construct: JAK1-JH2 domain or TYK2-JH2 domain enzyme in assay buffer
Method in brief: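 IC50 values (nM) come from TR-FRET readings taken after a 25°C incubation followed by overnight at 4°C. Each well held JH2 domain protein, Tb-antibody, tracer and test compound titrated in 11 threefold steps, with DMSO high and low controls.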

[2] = target: T2, JAK1-JH2 domain (Homo sapiens, UniProt P23458); assay: Binding activity test for JH2 domain of JAK1 (Tb-antibody/tracer FRET); conditions: JH2 domain enzyme; 60 min at 25°C, then 4°C overnight; read-out: JAK1 JH2 Binding IC50
T2 construct: JAK1-JH2 domain or TYK2-JH2 domain enzyme in assay buffer
T2 sequence (P23458 583-855 limits assumed): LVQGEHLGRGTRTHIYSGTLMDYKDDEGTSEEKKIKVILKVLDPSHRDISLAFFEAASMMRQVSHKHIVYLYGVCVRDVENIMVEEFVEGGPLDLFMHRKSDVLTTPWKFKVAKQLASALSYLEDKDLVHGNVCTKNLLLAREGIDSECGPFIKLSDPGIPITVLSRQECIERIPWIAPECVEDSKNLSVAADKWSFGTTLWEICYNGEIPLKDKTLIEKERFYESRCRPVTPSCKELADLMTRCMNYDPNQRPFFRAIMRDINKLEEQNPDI
Method: Binding Activity test for JH2 domain of JAK1 and TYK2 […] Add 8μL/well in echo source plate, echo will add 75nL/well with 3-fold serial dilution for 11 points in assay plate. 75nL DMSO for high control and low control. […] For low control, add 5μL/well assay buffer. And then spin down at 1000rpm and centrifuge for 30 seconds. After enzyme system prepared, add 5μL of Tb-antibody solution into each well of assay plate. Spin down at 1000 rpm and centrifuge for 30sec. After Tb-antibody added, also add 5μL of tracer into the assay plate. Spin down at 1000rpm and centrifuge for 30sec. Incubate for […] at 25°C firstly and then continue to incubate the plate at 4°C overnight. Read by envision in FRET mode. The Luminescence value was recorded by a multi-label reader Envision (PerkinElmer). […] Table 2. IC50 on JH2 domain activity (nM)

[3] = system: Ba/F3-FL-TYK2-P760L cells; assay: Anti-proliferative assay in engineered Ba/F3 cells (Cell-Titer Glo, 72 h); type: cell-based; conditions: Mus musculus, BaF3, 72 h, 72 h compound treatment, concentration that causes 50% growth inhibition, read-out: Baf3-FL-T2P760L
Method in brief: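 IC50 from luminescent ATP viability after 72 h compound exposure (37 °C, 5% CO2), % inhibition normalised to DMSO-treated cells minus medium blank. IL-3-free Ba/F3-FL-TYK2-P760L (Tel-JAK fusion) cells in 10% FBS RPMI-1640 received 9 three-fold doses, top 20 µM, 0.1% DMSO.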

T1 sequence (P29597 589-875 limits assumed): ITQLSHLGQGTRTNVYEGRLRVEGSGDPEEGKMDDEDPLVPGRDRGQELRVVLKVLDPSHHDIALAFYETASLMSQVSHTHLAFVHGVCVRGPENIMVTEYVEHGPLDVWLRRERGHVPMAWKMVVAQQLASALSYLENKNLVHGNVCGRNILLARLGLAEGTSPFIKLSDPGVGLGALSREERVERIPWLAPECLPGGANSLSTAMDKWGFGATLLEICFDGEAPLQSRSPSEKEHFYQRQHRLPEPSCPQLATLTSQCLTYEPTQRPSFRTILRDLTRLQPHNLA

| pIC50 [3] | SMILES | pIC50 [1] | JAK1/TYK2 selectivity [1] | pIC50 [2] |
| --- | --- | --- | --- | --- |
|  | CCn1nc(Nc2cc(NC(=O)C3CC3)ncc2C(=O)OC)c2c(OC)c(C(OC)C(F)(F)F)ccc21 (single isomer, unassigned) [Example 66A, Methyl (R*)-6-(cyclopropanecarboxamido)-4-((1-ethyl-4-methoxy-5-(2,2,2-trifluoro-1-methoxyethyl)-1H-indazol-3-yl)amino)nicotinate] | 8.55 | 106.23 | < 6.53 |
|  | COC(=O)c1cnc(NC(=O)C2CC2)cc1Nc1nsc2ccc(C(OC)C(F)(F)F)c(OC)c12 (single isomer, unassigned) [Example 67A, Methyl (S*)-6-(cyclopropanecarboxamido)-4-((4-methoxy-5-(2,2,2-trifluoro-1-methoxyethyl)benzo[d]isothiazol-3-yl)amino)nicotinate] | 9.68 | 88.72 | 7.73 |
|  | COC(=O)c1cnc(NC(=O)C2CC2)cc1Nc1nsc2ccc(C(OC)C(F)(F)F)c(OC)c12 (single isomer, unassigned) [Example 67B, Methyl (R*)-6-(cyclopropanecarboxamido)-4-((4-methoxy-5-(2,2,2-trifluoro-1-methoxyethyl)benzo[d]isothiazol-3-yl)amino)nicotinate] | 9.49 | 372.97 | 6.92 |
|  | CCn1nc(Nc2cc(NC(=O)C3CC3)ncc2C(=O)OC)c2c(OC)c(C(O)C(F)(F)F)ccc21 (single isomer, unassigned) [Example 70B, Methyl (R*)-6-(cyclopropanecarboxamido)-4-((1-ethyl-4-methoxy-5-(2,2,2-trifluoro-1-hydroxyethyl)-1H-indazol-3-yl)amino)nicotinate] | 8.67 | 22.26 | 7.33 |
|  | [2H]C([2H])([2H])CC(=O)c1cnc(NC(=O)C2CC2)cc1Nc1nn(C)c2ccc([C@@H](O)C(F)(F)F)c(OC)c12 [Example 54B, (R)-N-(4-((4-methoxy-1-methyl-5-(2,2,2-trifluoro-1-hydroxyethyl)-1H-indazol-3-yl)amino)-5-(propanoyl-3,3,3-d3)pyridin-2-yl)cyclopropanecarboxamide] | 9.36 | 16.36 | 8.15 |
|  | [2H]C([2H])([2H])n1nc(Nc2cc(NC(=O)C3CC3)ncc2C(=O)OC)c2c(OC)c(C(OC)C(F)F)ccc21 (stereo not drawn) [Example 69, Methyl 6-(cyclopropanecarboxamido)-4-((5-(2,2-difluoro-1-methoxyethyl)-4-methoxy-1-(methyl-d3)-1H-indazol-3-yl)amino)nicotinate] | 9.89 | 114.31 | 7.83 |
|  | CCONC(=O)c1cnc(NC(=O)C2CC2)cc1Nc1nn(C)c2ccc(C(OC)C(F)(F)F)c(OC)c12 (stereo not drawn) [Example 75, 6-(Cyclopropanecarboxamido)-N-ethoxy-4-((4-methoxy-1-methyl-5-(2,2,2-trifluoro-1-methoxyethyl)-1H-indazol-3-yl)amino)nicotinamide] | 10.05 | 274.63 | 7.61 |
|  | CCOC(=O)c1nnc(NC(=O)C2CC2)cc1Nc1cccc(-c2ncn(C)n2)c1OC [Example 86, Ethyl 6-(cyclopropanecarboxamido)-4-((2-methoxy-3-(1-methyl-1H-1,2,4-triazol-3-yl)phenyl)amino)pyridazine-3-carboxylate] | < 6.53 |  | < 6.53 |
|  | [2H]C([2H])([2H])OC(=O)c1nnc(NC(=O)C2CC2)cc1Nc1nc2ccc(N3CC(OC)C3)cn2n1 [Example 125, Methyl-d3 6-(cyclopropanecarboxamido)-4-((6-(3-methoxyazetidin-1-yl)-[1,2,4]triazolo[1,5-a]pyridin-2-yl)amino)pyridazine-3-carboxylate] | 7.28 | >5.70 | < 6.53 |
| 7.13 | COC(=O)c1cnc(NC(=O)C2CC2)cc1Nc1nn(C)c2ccc(C3(C(F)(F)F)CC3)c(OC)c12 [Example 161, Methyl 6-(cyclopropanecarboxamido)-4-((4-methoxy-1-methyl-5-(1-(trifluoromethyl)cyclopropyl)-1H-indazol-3-yl)amino)nicotinate] | 9.25 |  |  |
| 7.58 | COC(=O)c1cnc(NC(=O)C2CC2)cc1Nc1nn(C)c2ccc(C3(C#N)CC3)c(OC)c12 [Example 162, Methyl 4-((5-(1-cyanocyclopropyl)-4-methoxy-1-methyl-1H-indazol-3-yl)amino)-6-(cyclopropanecarboxamido)nicotinate] | 9.58 |  |  |
| 7.25 | COC(=O)c1cnc(NC(=O)C2CC2)cc1Nc1nn(C(F)(F)F)c2ccc(C(OC)C(F)(F)F)c(OC)c12 (stereo not drawn) [Example 163, Methyl 6-(cyclopropanecarboxamido)-4-((4-methoxy-5-(2,2,2-trifluoro-1-methoxyethyl)-1-(trifluoromethyl)-1H-indazol-3-yl)amino)nicotinate] | 9.31 |  |  |
| 7.30 | COC(=O)c1cnc(NC(=O)C2CC2)cc1Nc1nn(C)c2ccc(CO)c(OC)c12 [Example 164, Methyl 6-(cyclopropanecarboxamido)-4-((5-(hydroxymethyl)-4-methoxy-1-methyl-1H-indazol-3-yl)amino)nicotinate] | 9.32 |  |  |
| 6.55 | COC(=O)c1cnc(NC(=O)C2CC2)cc1Nc1nn(C)c2ccc(C(OC)C(C)OC)c(OC)c12 (stereo not drawn) [Example 165, Methyl 6-(cyclopropanecarboxamido)-4-((5-(1,2-dimethoxypropyl)-4-methoxy-1-methyl-1H-indazol-3-yl)amino)nicotinate] | 8.57 |  |  |
| 6.95 | COC(=O)c1cnc(NC(=O)C2CC2)cc1Nc1nn(C)c2ccc([C@H](OC)C(C)OC)c(OC)c12 (stereo partly drawn) [Example 166, Methyl 6-(cyclopropanecarboxamido)-4-((5-((1S)-1,2-dimethoxypropyl)-4-methoxy-1-methyl-1H-indazol-3-yl)amino)nicotinate] | 8.96 |  |  |
| 7.46 | CCC(F)(F)c1cnc(NC(=O)C2CC2)cc1Nc1nccc2c1N(C)C(C)c1nn(C)nc1-2 (stereo not drawn) [Example 178, N-(5-(1,1-Difluoropropyl)-4-((2,4,5-trimethyl-4,5-dihydro-2H-[1,2,3]triazolo[4,5-c][1,7]naphthyridin-6-yl)amino)pyridin-2-yl)cyclopropanecarboxamide] | 8.50 |  |  |
| 7.51 | COC(=O)c1cnc2cc1Nc1nn(c3ccc(C(OC)C(F)(F)F)c(OC)c13)CCOCc1nc(ccc1F)N2 (stereo not drawn) [Example 179, Methyl 12-fluoro-23-methoxy-22-(2,2,2-trifluoro-1-methoxyethyl)-15-oxa-2,6,8,18,25,26-hexaazapentacyclo[16.6.1.1^{3,7}.1^{9,13}.0^{19,24}]heptacosa-1(25),3(27),4,6,9,11,13(26),19,21,23-decaene-4-carboxylate] | 9.32 |  |  |
|  | [2H]C([2H])([2H])NC(=O)c1cnc(NC(=O)C2CC23CC3)cc1Nc1nn(C)c2ccc([C@H](O)C(F)(F)F)c(OC)c12 (stereo partly drawn) [Example 199, 4-((4-Methoxy-1-methyl-5-((S)-2,2,2-trifluoro-1-hydroxyethyl)-1H-indazol-3-yl)amino)-N-(methyl-d3)-6-(spiro[2.2]pentane-1-carboxamido)nicotinamide] | 10.04 | 61.34 | 8.25 |
